# “Also recorded” adds a separate entry of the source.
# How the values were obtained:
# [1] = tested on: LNCaP-pcDNA and LNCaP-GATA2 cells; assay: MTT assay in LNCaP-pcDNA and LNCaP-GATA2 cells; type: cell-based; conditions: 72 hours
# Experimental: Cells were exposed to DMSO vehicle or compounds for 72 hours. Vial cells were evaluated by MTT assays. Experiments were done in triplicate.
# [2] = biological target: T1, human GATA2 (Homo sapiens, UniProt P23769); assay: GATA2-dependent reporter assay in IHH cells; type: cell-based; conditions: GATA-Luc reporter, 48 h
# T1 construct: expressed in transfected cells; host or cells: IHH
# T1 sequence (P23769 1-480): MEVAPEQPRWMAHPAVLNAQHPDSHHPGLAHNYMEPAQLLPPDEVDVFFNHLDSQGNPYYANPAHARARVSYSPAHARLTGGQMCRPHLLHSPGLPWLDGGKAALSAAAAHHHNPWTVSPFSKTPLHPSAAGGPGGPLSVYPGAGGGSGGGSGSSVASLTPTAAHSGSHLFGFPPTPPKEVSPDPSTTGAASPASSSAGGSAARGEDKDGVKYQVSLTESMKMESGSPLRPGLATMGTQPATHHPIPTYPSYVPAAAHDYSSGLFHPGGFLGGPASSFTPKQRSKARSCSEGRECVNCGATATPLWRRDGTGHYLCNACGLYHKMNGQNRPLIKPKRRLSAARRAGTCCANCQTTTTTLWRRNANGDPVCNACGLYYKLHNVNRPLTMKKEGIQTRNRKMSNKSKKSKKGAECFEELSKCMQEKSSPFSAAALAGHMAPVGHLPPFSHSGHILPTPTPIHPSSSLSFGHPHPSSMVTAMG
# Experimental: K7174 is a known GATA2 inhibitor. The IHH cells were transiently transfected with empty vector (for the NT) or human GATA2-expressing plasmid as well as pRL-TK (internal control) and GATA-Luc reporter plasmids. Cells were exposed to DMSO vehicle or compounds for 48 h. Experiments were in triplicate.
# [3] = biological target: T2, human GATA3 (Homo sapiens, UniProt P23771); assay: GATA3-dependent reporter assay in IHH cells; type: cell-based; conditions: 48 hours
# T2 construct: expressed in transfected cells; host or cells: IHH
# T2 sequence (P23771 whole entry): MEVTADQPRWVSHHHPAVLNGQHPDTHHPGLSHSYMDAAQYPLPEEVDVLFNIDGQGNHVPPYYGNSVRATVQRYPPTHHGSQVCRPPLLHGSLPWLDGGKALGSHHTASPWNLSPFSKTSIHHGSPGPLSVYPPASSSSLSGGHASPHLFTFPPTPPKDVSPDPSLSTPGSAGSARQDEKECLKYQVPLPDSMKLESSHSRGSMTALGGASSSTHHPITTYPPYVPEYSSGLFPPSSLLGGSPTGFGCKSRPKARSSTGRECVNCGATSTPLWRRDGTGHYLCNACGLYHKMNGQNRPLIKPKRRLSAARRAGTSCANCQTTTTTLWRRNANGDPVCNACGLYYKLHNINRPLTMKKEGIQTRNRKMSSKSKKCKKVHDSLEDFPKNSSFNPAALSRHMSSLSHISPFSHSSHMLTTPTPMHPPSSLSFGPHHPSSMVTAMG
# Experimental: The IHH cells were transiently transfected with empty vector (for the NT) or human GATA3-expressing plasmid as well as pRL-TK (internal control) and GATA-Luc reporter plasmids. Cells were exposed to DMSO vehicle or compounds for 48 hours. Experiments were done in triplicate.
# [4] = tested on: GATA family members (GATA1, GATA2, GATA3, GATA4); assay: GATA1-, GATA2-, GATA3- and GATA4-dependent reporter assays in IHH cells; type: cell-based; conditions: CSS medium, 48 hours
# Experimental: In contrast, K7174 is not selective. GATA1-, GATA2-, GATA3- and GATA4-dependent reporter assays were done in IHH cells which were exposed to DMSO vehicle, compound 673 or K7174 (μM) in CSS medium for 48 hours.
# [5] = biological target: T3, recombinant protein of human GATA2 (Homo sapiens, UniProt P23769); assay: SPR analysis on amine-coupled GATA2; type: binding
# T3 sequence (P23769 1-480): T1 sequence (P23769 1-480)
# From the text: In embodiments of the invention, the androgen-bound AR is regressing GATA2 expression and inhibition of AR via castration or use of antiandrogen releases such expression. […] Overexpression of GATA2 confers resistance to antiandrogen bicalutamide (Bic) (FIG. 2.9). Compound 673 is effective against the LNCaP stably transfected with GATA2-expressing plasmid (referred to as LNCaP-GATA2 cells) (FIG. 2.8).
# [6] = tested on: androgen receptor (AR) signaling in C4-2B prostate cancer cells; assay: Western blot, AR signaling in C4-2B cells; type: cell-based
# [7] = tested on: GATA2 expression in C4-2B cells; assay: Western blot, GATA2 expression in C4-2B cells; type: cell-based
# [8] = tested on: A549 KRAS-mutant NSCLC cells; assay: MTT assay, A549; type: cell-based; conditions: 72 hours
# Experimental: (§1) FIG. 2.7 Compound 673 is cytotoxic in KRAS-mutant NSCLC cells (A549 and H23), but is not toxic the KRAS wild-type NSCLC cells (H322). Cells were exposed to vehicle or compounds (μM) for 72 hours. Viable cells were evaluated by MTT assays.
# [9] = tested on: H23 KRAS-mutant NSCLC cells; assay: MTT assay, H23; type: cell-based; conditions: KRAS-mutant NSCLC, 72 hours
# Experimental: as §1
# Panc 10.05, H23 and HCT-116 cells express endogenous KRAS 12D, 12C and 13D mutants, respectively. Cells were exposed to DMSO vehicle or compounds at designated doses for 72 hours. Experiments were done in triplicate.
# [10] = tested on: H322 KRAS wild-type NSCLC cells; assay: MTT assay, H322; type: cell-based; conditions: 72 hours
# Experimental: as §1
# [11] = tested on: fusion protein IRF3DBD-GATA2NTD; assay: ISRE-luc reporter assay in PC3 cells, IRF3DBD-GATA2NTD; type: cell-based; conditions: 5 μM
# [12] = biological target: T4, wild-type IRF3 (Homo sapiens, UniProt Q14653); assay: ISRE-luc reporter assay in PC3 cells, wild-type IRF3; type: cell-based; conditions: 5 μM
# T4 construct: host or cells: PC3
# T4 sequence (Q14653 whole entry, species assumed): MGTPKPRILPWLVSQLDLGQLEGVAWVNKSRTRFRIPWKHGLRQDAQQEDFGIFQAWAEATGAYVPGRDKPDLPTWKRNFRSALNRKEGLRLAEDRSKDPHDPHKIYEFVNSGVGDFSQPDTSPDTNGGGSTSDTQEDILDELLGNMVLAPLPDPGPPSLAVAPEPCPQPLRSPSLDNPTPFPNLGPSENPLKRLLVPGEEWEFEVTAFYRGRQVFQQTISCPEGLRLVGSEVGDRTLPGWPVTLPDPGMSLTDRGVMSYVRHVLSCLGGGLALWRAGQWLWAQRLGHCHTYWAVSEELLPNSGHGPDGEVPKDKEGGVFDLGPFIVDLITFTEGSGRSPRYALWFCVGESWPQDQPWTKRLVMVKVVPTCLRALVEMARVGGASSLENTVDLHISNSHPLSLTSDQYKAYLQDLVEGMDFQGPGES
# [13] = tested on: AR signaling in LNCaP-GATA2, HP-LNCaP, C4-2B and 22Rv1 cells; assay: Western blot, AR signaling in LNCaP-GATA2 and CRPC cells; type: cell-based; conditions: LNCaP-GATA2 in FBS medium, 22Rv1 in CSS medium, 72 hours
# Experimental: FIG. 2.11 By breaking AR-GATA2 feedback loop, compound 673 suppresses the AR signaling in CRPC cells. […] Cells were exposed to DMSO vehicle, BIC, 673 or K7174 at designated doses (μM) for 72 hours.
# [14] = tested on: PSA-luc reporter in LNCaP-GATA2 cells; assay: PSA-luc reporter assay in LNCaP-GATA2 cells, combination with bicalutamide; type: cell-based; conditions: equi-molar combination, 72 hours, FBS medium
# Experimental: (§2) (A) PSA-luc reporter assay in LNCaP-GATA2 cells, which were exposed to DMSO vehicle, BIC, 673, or equi-molar combination of Bic and 673 for 72 hours in FBS medium. RLU, relative luciferase unit; (B) BrdU Cell Proliferation Assay (Assay Kit #6813, Cell Signaling Tech.). LNCaP-GATA2 cells were exposed to DMSO vehicle, Bic, 673 or equi-molar combination of Bic and 673 for 48 hours. In the last 8 hours, 10 μM BrdU was added to the plate. **p<0.001, ***p<0.001 when compared with BIC at the same doses; #p<0.05, ##p<0.001 when compared with 673 at the same doses.
# [15] = tested on: LNCaP-GATA2 cells; assay: BrdU cell proliferation assay in LNCaP-GATA2 cells, combination with bicalutamide; type: cell-based; conditions: equi-molar combination, 48 hours
# Experimental: as §2
# [16] = biological target: T5, human STING (hSTING) (Homo sapiens, UniProt Q86WV6); assay: hSTING ISRE-luc reporter assay in 293T cells; type: cell-based; conditions: 24 hours
# T5 construct: expressed in transfected cells; host or cells: 293T
# T5 sequence (Q86WV6 whole entry H232R): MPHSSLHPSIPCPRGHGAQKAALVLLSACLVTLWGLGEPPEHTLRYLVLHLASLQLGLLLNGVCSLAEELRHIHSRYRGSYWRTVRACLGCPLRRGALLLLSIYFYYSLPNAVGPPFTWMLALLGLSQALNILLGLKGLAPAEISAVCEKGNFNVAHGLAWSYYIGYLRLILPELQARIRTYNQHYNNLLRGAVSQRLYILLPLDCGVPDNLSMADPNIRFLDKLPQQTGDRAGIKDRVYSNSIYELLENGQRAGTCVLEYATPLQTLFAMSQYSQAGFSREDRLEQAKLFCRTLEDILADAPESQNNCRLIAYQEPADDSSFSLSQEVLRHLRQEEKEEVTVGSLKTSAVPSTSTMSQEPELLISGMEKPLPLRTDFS
# Experimental: ISRE-luc (reporter), pRL-TK (internal control) and hSTING-expressing plasmids were transiently transfected into 293T cells. Cells were exposed to DMSO vehicle control or compounds for 24 hours. Experiments were done in triplicate.
# [17] = biological target: T6, ERG (Homo sapiens, UniProt P11308); assay: ERG-dependent reporter assay in HEK293 cells; type: cell-based; parameters: expressed in transfected cells; host or cells: HEK293; conditions: PUx3-Luc reporter, 48 hours, designated doses
# T6 sequence (P11308 1-486 isoform P11308-3): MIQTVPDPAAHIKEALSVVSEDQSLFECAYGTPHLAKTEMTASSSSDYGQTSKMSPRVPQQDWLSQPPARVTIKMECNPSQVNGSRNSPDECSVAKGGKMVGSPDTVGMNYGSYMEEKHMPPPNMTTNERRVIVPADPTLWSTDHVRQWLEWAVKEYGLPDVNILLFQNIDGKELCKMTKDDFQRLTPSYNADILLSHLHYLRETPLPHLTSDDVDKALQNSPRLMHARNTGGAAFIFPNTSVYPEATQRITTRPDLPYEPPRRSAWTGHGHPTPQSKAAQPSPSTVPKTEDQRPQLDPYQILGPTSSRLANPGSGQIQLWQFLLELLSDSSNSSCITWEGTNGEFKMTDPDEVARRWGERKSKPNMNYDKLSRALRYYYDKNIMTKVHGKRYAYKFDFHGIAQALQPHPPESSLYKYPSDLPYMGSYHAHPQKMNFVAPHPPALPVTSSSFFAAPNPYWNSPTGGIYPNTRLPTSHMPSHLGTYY
# Experimental: (§3) HEK293 cells were transiently transfected with empty vector (for the NT) or ERG-expressing plasmid as well as pRL-TK (internal control) and PUx3-Luc reporter. Cells were then exposed to DMSO vehicle or compounds at designated doses for 48 hours. Experiments were done in triplicate.
# [18] = biological target: T7, ESE-1 (Homo sapiens, UniProt P78545); assay: ESE-1 dependent reporter assay in HEK293 cells; type: cell-based; conditions: 48 hours
# T7 construct: expressed in transfected cells; host or cells: HEK293
# T7 sequence (P78545 1-371): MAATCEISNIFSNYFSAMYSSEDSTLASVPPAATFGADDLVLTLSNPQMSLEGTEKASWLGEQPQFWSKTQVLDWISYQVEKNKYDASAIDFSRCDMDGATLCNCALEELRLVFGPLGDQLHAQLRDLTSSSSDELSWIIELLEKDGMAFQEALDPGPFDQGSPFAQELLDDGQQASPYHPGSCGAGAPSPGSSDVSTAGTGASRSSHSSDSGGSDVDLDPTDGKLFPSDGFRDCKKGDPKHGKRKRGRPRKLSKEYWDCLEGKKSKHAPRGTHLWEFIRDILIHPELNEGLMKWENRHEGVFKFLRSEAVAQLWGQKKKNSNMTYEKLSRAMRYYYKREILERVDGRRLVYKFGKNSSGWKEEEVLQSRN
# Experimental: as §3
# Experiments were done as described above in FIG. 1.1a) except that ERG plasmid was replaced by ESE-1 plasmid.
# [19] = biological target: T8, ETS-2 (Homo sapiens, UniProt P15036); assay: ETS-2 dependent reporter assay in HEK293 cells; type: cell-based; conditions: 48 hours
# T8 construct: expressed in transfected cells; host or cells: HEK293
# T8 sequence (P15036 whole entry, species assumed): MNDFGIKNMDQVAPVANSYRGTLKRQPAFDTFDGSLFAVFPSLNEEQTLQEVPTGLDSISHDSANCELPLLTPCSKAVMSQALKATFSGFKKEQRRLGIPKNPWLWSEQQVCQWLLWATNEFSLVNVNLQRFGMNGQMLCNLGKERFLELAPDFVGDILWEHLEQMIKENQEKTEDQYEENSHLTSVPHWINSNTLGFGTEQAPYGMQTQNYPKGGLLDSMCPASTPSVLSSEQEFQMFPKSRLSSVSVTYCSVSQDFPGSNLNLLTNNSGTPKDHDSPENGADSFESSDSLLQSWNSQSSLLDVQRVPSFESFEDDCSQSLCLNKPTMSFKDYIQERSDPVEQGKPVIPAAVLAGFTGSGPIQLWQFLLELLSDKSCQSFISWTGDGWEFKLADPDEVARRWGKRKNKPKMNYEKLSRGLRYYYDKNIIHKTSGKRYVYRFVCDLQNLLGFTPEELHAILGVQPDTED
# Experimental: as §3
# Experiments were done as described above in FIG. 1.1a) except that ERG plasmid was replaced by ETS-2 plasmid.
# [20] = tested on: GATA; conditions: read-out: IC50 in reporter assay; cited from earlier work
compound,measurement,setting,value
"CC(O)(CS(=O)(=O)c1ccc(F)cc1)C(=O)Nc1ccc(C#N)c(C(F)(F)F)c1 (stereo not shown) [bicalutamide, reference compound]",cytotoxicity in LNCaP-GATA2 compared with LNCaP-pcDNA cells (MTT),[1],less active in LNCaP-GATA2 cells
Fc1cccc(-c2nc(CCCc3c[nH]c4ccccc34)oc2-c2cccc(F)c2)c1 [Compound 673],GATA2 inhibition in GATA2-dependent reporter assay,[2],GATA2 inhibitors
same,activity against GATA3 in GATA3-dependent reporter assay,[3]; 10 μM,inactive against GATA3
same,activity against GATA3 in GATA3-dependent reporter assay,[3]; compounds at 5 μM,inactive against GATA3
same,selectivity for GATA2 among GATA family members,[4],selectively inhibits GATA2
same,dose-dependent binding to amine-coupled GATA2 (SPR),"[5]; 0-50 μM, 2-fold dilution series",Specific and dose-dependent binding
same,binding to amine-coupled GATA2 (SPR),[5]; 50 μM each,Direct binding; also recorded: Specific binding
same,suppression of androgen receptor (AR) signaling (Western blot),[6],potently inhibits the AR signaling; also recorded: suppresses the androgen receptor (AR) signaling
same,inhibition of GATA2 expression (Western blot),[7],inhibits GATA2 expression
same,cytotoxicity in A549 cells (MTT),[8],cytotoxic
same,cytotoxicity in H23 cells (MTT),[9],cytotoxic
same,cytotoxicity in H322 cells (MTT),[10],not toxic
same,activity against fusion protein IRF3DBD-GATA2NTD (ISRE-luc),[11],active
same,activity against wild-type IRF3 (ISRE-luc),[12],inactive
same,suppression of AR signaling in LNCaP-GATA2 and CRPC cells (WB),[13],suppresses the AR signalling in CRPC cells; also recorded: effective in suppressing AR signaling
same,effect of combination with bicalutamide (BIC) in PSA-luc reporter assay,[14],Synergistic effect
same,effect of combination with bicalutamide (BIC) in BrdU cell proliferation assay,[15],Synergistic effect
same,activation of hSTING in ISRE-luc reporter assay,[16],activate hSTING
same,ERG inhibition in ERG-dependent reporter assay,[17],ERG inhibitors
N#CC(NC(=O)c1ccccc1)SCc1ccccc1 (stereo not shown) [Compound V154],ESE-1 inhibition in ESE-1 dependent reporter assay,[18],ESE-1 inhibitors
same,ETS-2 inhibition in ETS-2 dependent reporter assay,[19],ETS-2 inhibitor
same,ERG inhibition in ERG-dependent reporter assay,[17],ERG inhibitors
"COc1cc(/C=C/CCCN2CCCN(CCC/C=C/c3cc(OC)c(OC)c(OC)c3)CC2)cc(OC)c1OC [Compound K7174, K7174, reference compound]",activity against GATA3 in GATA3-dependent reporter assay,[3]; compounds at 5 μM,active against GATA3
same,selectivity for GATA2 among GATA family members,[4],not selective
same,IC50,[20],~15 µM

# Source: patent US10844051B2, “Substituted oxazoles for the treatment of cancer” (THE ROYAL INSTITUTION FOR THE ADCANCEMENT OF …, priority 2015, dated 2020)
